# Article PMC4149238, “Systemic delivery of P42 peptide: a new weapon to fight Huntington’s disease” (Acta Neuropathologica Communications, 2014)
# Residues, ends and D or L forms follow the SMILES beside them. *: point of attachment. 5TAMRA = CN(C)c1ccc2c(c1)Oc1cc(N(C)C)ccc1C21OC(=O)c2cc(C(=O)*)ccc21
# Experiments:
# [1] = system: brain of wild-type C57BL/6 J mice; assay: Brain targeting after buccal/rectal NP42T (MALDI Imaging Mass Spectrometry); assay type: in vivo, mouse; details: NP42T 210 μg, four buccal and four rectal administrations, 3 h, MALDI IMS, two mice
# Procedure: For MALDI analysis, wild-type C57BL/6 J mice have been injected either by ICV (2.1 μg), or treated with empty NP, or with NP42T (210 μg) microemulsions. For NP and NP42T, four buccal and four rectal administrations (1 ml/kg) have been performed, spaced by 30 minutes to ensure mucosa internalization. Two mice have been treated for each condition and sacrificed 3 h after the injections.
# Tissue preparation and MALDI imaging analysis: Frozen brain sections were cut in 15 μm slices using an HM 550 OVPD cryostat (Fisher Scientific, Illkirch, France), set at −20°C, mounted on ITO coated conductive glass slides and allowed to thaw and desiccate in a vacuum desiccator. Tissue sections were then coated manually with a 10 mg/ml α-cyano-4-hydroxycinnamic acid dissolved in 50% acetonitrile (ACN) and 0.1% trifluoroacetic acid (TFA).
# MALDI imaging was performed using the 4800 Plus MALDI TOF/TOF^TM Analyzer (AB Sciex). Image acquisition was achieved using the 4800 imaging tool software (MSI imaging). […]
# The two dimensional ion image of the tissue section was analyzed using Tissue View^TM software (Applied Biosystems/MDS analytical technologies). A colour scale representing signal intensity is exported from Tissue View^TM software to provide semi quantitative information.
# [2] = system: wild-type mice; assay: Tolerability in NP42T-treated wild-type mice; assay type: in vivo, mouse; details: week 2 to 11
# Procedure: For animal experimentation, a cohort of 30 females was divided into four groups (WT treated with empty NP (n = 5); WT treated with NP42T (n = 8); R6/2 treated with empty NP (n = 8); R6/2 treated with NP42T (n = 9)). Administrations were performed five days a week, at the same time of the day, starting in 2-week-old mice. The treatment was performed until the mice were sacrificed (at week 11). NP42T peptide (600 μg/ml/kg) was administrated twice a day per mucosa, with two buccal injections until the mice were 4 week old, and via rectal and buccal injections for older animals older.
# [3] = mice brain soluble extract, 15 μg peptide, incubation 0, 1, 3 and 6 h, MALDI-MS
# Description: MALDI MS and MS/MS analysis: Spectra acquisition has been performed using the 4800 Plus MALDI TOF/TOF^TM mass spectrometer (ABSciex) controlled by the 4000 Series Explorer^TM. MS spectra were acquired in a reflector positive mode (mass range: m/z 700–4000, laser intensity set at 50% and 3000 total laser shots per spectrum, MS resolution ≥ 12000–17000). MS/MS precursor was selected manually with an absolute mass window of 1 Da and each MS/MS spectrum is the result of 1000 total laser shots with a laser intensity set at 50% and a MS/MS resolution ≥ 2000–5000. The fragmentation was performed at collision energy of 2 kV and a collision air pressure set at 10^−6 Torr.
# [4] = system: HeLa cells; assay: Internalization of exogenous peptide into HeLa cells; assay type: cell-based, human; details: synthetic TAMRA end-labelled peptide in culture medium, anti-TAMRA immunostaining, confocal
# Procedure: (§1) HeLa cells were grown and maintained in DMEM medium (Gibco) supplemented with 10% fetal calf serum and glutamine. HeLa cells were grown in 6 well plates, and pDdest53-GFP-hHtt^171aa-136Q (0.75 μg) was transfected with JetPei reagent (Qbiogene). Equal amounts of pcDNA-Cherry-P42 or control vector were added for each transfection to level the total amount of plasmid DNA. To test the internalization of exogenous peptide, synthesized TAMRA-P42-TAT was added at the same time as pDest53-GFP-hHtt^171aa-Q136 transfection, at different concentrations (0, 0.5, 1, 5, 10 or 20 μM). Cells were incubated with plasmid and peptide for 12 h. Then the medium was washed twice with PBS, the cells trypsinized, and grown on a coverslip with new DMEM medium for 6 h. This step was necessary to eliminate the peptide that crystallizes on the well. Eventually, cells were fixed with 4% paraformaldehyde and immunostained for microscopic analysis. To observe the internalization of the peptide TAMRA-P42-TAT, the signal was amplified by anti-TAMRA immunostaining (1:500- Invitrogen). Nuclei were counterstained with DAPI (4′, 6 diamino-2-phenylindole). The pictures were taken with a confocal laser scanning microscope model LSM780 (Carl Zeiss).
# [5] = system: HeLa cells; assay: MTT test of HeLa cell survival; assay type: cell-based, human; details: large excess of peptide, data not shown
# [6] = system: brain of wild-type C57BL/6 J mice; assay: Brain distribution of TAMRA-P42-TAT after ICV injection; assay type: in vivo, mouse
# Procedure: To test the stability of the peptide in the brain, single intracerebroventricular (ICV) injection of peptides was performed in the right ventricle of C57BL/6 mice as described in [15]. 5 μg or 1 μg of TAMRA-P42-TAT were stereotaxically injected into the right lateral ventricle (coordinates 1 mm right lateral to bregma and 3 mm ventral to the skull surface) of C57BL/6 J mice using a 10 μl Hamilton syringe at a rate of 0.2 μl to 1 μl/min. As a control, saline was injected in the same volume and at the same rate. […]
# TAMRA-P42-TAT injected mice were also immunostained with rabbit monoclonal anti-DARPP32 (MAb2306 - Cell Signaling Technology - 1: 1600), secondary detected by Alexa 488 anti-rabbit (1: 2000) to label the striatum, and with mouse monoclonal anti-NeuN (MAB377 – Millipore - 1: 1000), secondary detected by Dye light blue anti-mouse (1: 500), as a neuronal marker.
# [7] = system: GFP-hHtt^171aa-Q136 aggregation; assay: polyQ-hHtt aggregation in transfected HeLa cells (microscopy); assay type: cell-based, human; details: HeLa cells co-transfected with GFP-hHtt171aa-Q136 and vector expressing Cherry-tagged peptide, vs empty vector
# Procedure: as §1
# [8] = system: flies expressing hHtt exon1 with expanded polyQ; details: cited from earlier work
# Description: Most research undertaken to find a cure for HD focus on the mutated allele (trying to reduce its expression), or on the polyQ stretch that is responsible for aggregation, but that is also present in other neurodegenerative diseases. Our approach is based on the observation that the ratio between normal and mutant Huntingtin is a crucial factor in the onset and progression of the disease. In a previous work, we confirmed the protective role of wild-type N-terminus Htt. We further screened human hHtt, for peptides able to prevent polyQ-hHtt aggregation i ... || The efficient rescue supported by P42 administration represents one of the best therapeutic effects described so far. Therapeutic research currently targets mutant Htt at transcriptional or post-translational level. The recent works in RNA interference or ASO strategies attempt to reduce the expression of the mutant transcript. Despite recent progress, the limitation of this approach lays in the effects on the wild-type allele and the aggravation of the loss of function effects. Biochemical molecules and intrabodies have also been designed against the protein, in order to target abnorma ...
compound,measurement,setting,value
CC[C@H](C)[C@H](NC(=O)[C@H](CC(=O)O)NC(=O)[C@H](Cc1c[nH]cn1)NC(=O)CNC(=O)[C@H](C)NC(=O)[C@H](CO)NC(=O)CNC(=O)[C@@H]1CCCN1C(=O)[C@@H](NC(=O)[C@H](CO)NC(=O)[C@@H](NC(=O)CNC(=O)[C@H](CO)NC(=O)[C@H](CO)NC(=O)[C@H](C)NC(=O)[C@H](C)N)C(C)C)[C@@H](C)O)C(=O)N[C@H](C(=O)N[C@H](C(=O)N[C@@H](CCC(=O)O)C(=O)N[C@@H](CCC(N)=O)C(=O)N1CCC[C@H]1C(=O)N[C@@H](CCCNC(=N)N)C(=O)N[C@@H](CO)C(=O)NCC(=O)NCC(=O)N[C@@H](Cc1ccc(O)cc1)C(=O)NCC(=O)N[C@@H](CCCNC(=N)N)C(=O)N[C@@H](CCCCN)C(=O)N[C@@H](CCCCN)C(=O)N[C@@H](CCCNC(=N)N)C(=O)N[C@@H](CCCNC(=N)N)C(=O)N[C@@H](CCC(N)=O)C(=O)N[C@@H](CCCNC(=N)N)C(=O)N[C@@H](CCCNC(=N)N)C(=O)N[C@@H](CCCNC(=N)N)C(=O)O)[C@@H](C)O)[C@@H](C)CC [P42-TAT] (H-AASSGVSTPGSAGHDIITEQPRSGGYGRKKRRQRRR-OH),presence in the brain after Aonys administration,[1],able to reach the brain
same,toxicity noticed during the study,[2],no toxicity
same,time until full length peptide was degraded,[3],≤ 1 h
CC[C@H](C)[C@H](NC(=O)[C@H](CC(=O)O)NC(=O)[C@H](Cc1c[nH]cn1)NC(=O)CNC(=O)[C@H](C)NC(=O)[C@H](CO)NC(=O)CNC(=O)[C@@H]1CCCN1C(=O)[C@@H](NC(=O)[C@H](CO)NC(=O)[C@@H](NC(=O)CNC(=O)[C@H](CO)NC(=O)[C@H](CO)NC(=O)[C@H](C)NC(=O)[C@H](C)NC(=O)c1ccc2c(c1)C(=O)OC21c2ccc(N(C)C)cc2Oc2cc(N(C)C)ccc21)C(C)C)[C@@H](C)O)C(=O)N[C@H](C(=O)N[C@H](C(=O)N[C@@H](CCC(=O)O)C(=O)N[C@@H](CCC(N)=O)C(=O)N1CCC[C@H]1C(=O)N[C@@H](CCCNC(=N)N)C(=O)N[C@@H](CO)C(=O)NCC(=O)NCC(=O)N[C@@H](Cc1ccc(O)cc1)C(=O)NCC(=O)N[C@@H](CCCNC(=N)N)C(=O)N[C@@H](CCCCN)C(=O)N[C@@H](CCCCN)C(=O)N[C@@H](CCCNC(=N)N)C(=O)N[C@@H](CCCNC(=N)N)C(=O)N[C@@H](CCC(N)=O)C(=O)N[C@@H](CCCNC(=N)N)C(=O)N[C@@H](CCCNC(=N)N)C(=O)N[C@@H](CCCNC(=N)N)C(=O)O)[C@@H](C)O)[C@@H](C)CC [TAMRA-P42-TAT] (5TAMRA-AASSGVSTPGSAGHDIITEQPRSGGYGRKKRRQRRR-OH; N-terminus and C-terminus assumed),uptake into cultured cells,[4],taken up by almost all the cells
same,IC50 on HeLa cell survival (MTT test),[5],could not be measured
same,detection in brain 24 hrs after ICV injection,"[6]; C57BL/6 J mice, ICV 5 μg or 1 μg, 24 hrs, data not shown, n = 12",still detected
same,distribution in the striatum after ICV injection,"[6]; wild-type C57BL/6 J mice, ICV, sacrificed 3 hours after injection, TAMRA signal, DARPP32/NeuN co-staining",largely diffusing within the neurons
CC[C@H](C)[C@H](NC(=O)[C@H](CC(=O)O)NC(=O)[C@H](Cc1c[nH]cn1)NC(=O)CNC(=O)[C@H](C)NC(=O)[C@H](CO)NC(=O)CN)C(=O)N[C@H](C(=O)N[C@H](C(=O)N[C@@H](CCC(=O)O)C(=O)N[C@@H](CCC(N)=O)C(=O)N1CCC[C@H]1C(=O)N[C@@H](CCCNC(=N)N)C(=O)N[C@@H](CO)C(=O)NCC(=O)NCC(=O)N[C@@H](Cc1ccc(O)cc1)C(=O)NCC(=O)O)[C@@H](C)O)[C@@H](C)CC [m/z 1801.84 derivative] (H-GSAGHDIITEQPRSGGYG-OH),presence in the brain after Aonys administration,[1],still present in the brain
P42: 23aa peptide lying in the N-terminus (position 480–502 aa) of normal human Htt,rescue of GFP-Htt^171aa-Q136 aggregation,[7],completely rescue
same,eye degeneration of flies expressing hHtt exon1 with expanded polyQ,[8]; Drosophila model of HD,able to prevent eye degeneration
same,effects on lifespan,[8],partial
